# According to patent publication US20240109918A1, “HETEROCYCLIC COMPOUNDS AND USES THEREOF” (Kumquat Biosciences Inc., priority 2022, published 2024):
# Tests used:
# KRASG12D = target: T1, KRASG12D (Homo sapiens, UniProt P01116, G12D); experiment: Bio-Biochem-PPI-HTRF Ras-SOS1 interaction assay (KRAS G12D); assay type: biochemical; settings: 5 nM
# T1 construct: made in house; host or cells: E. coli BL21 (DE3)
# Description: (§1) The assay buffer can contain −5 mM HEPES pH 7.4, ˜150 mM NaCl, ˜ 1 mM DTT, 0.05% BSA and 0.0025% (v/v) Igepal. A Ras working solution is prepared in an assay buffer containing typically a suitable amount of the protein construct (e.g., GST-tagged K-Ras mutant) and the FRET donor (e.g., antiGST-Eu(K) from Cisbio, France). A SOS1 working solution is prepared in an assay buffer containing suitable amount of the protein construct (e.g., His-hSOS1) and the FRET acceptor (e.g., anti-6His-XL665 from Cisbio, France). A suitable amount of the protein construct will depend on the range of activity or range of IC50 values being detected or under investigation. For detecting IC50 within a range of 500 nM, the protein constructs of the same range of molarity can be utilized. […] A fixed volume of DMSO with or without test compound is transferred into a 384-well plate. Ras working solution is added to all wells of the test plate. SOS1 working solution is added to all wells except for those that are subsequently filled the inhibitor control solution. Upon incubation for about 10 minutes or longer, the fluorescence is measured with a M1000Pro plate reader (Tecan) using HTRF detection (excitation 337 nm, emission 1:620 nm, emission 2: 665 nm). Compounds are tested in duplicates at different concentrations (for example, 10 μM, 2.5 μM, 0.63 μM, 0.16 μM, 0.04 μM, 0.01 μM test compound). The ratiometric data (i.e., emission 2 divided by emission 1) is used to calculate IC50 values against Ras using GraphPad Prism (GraphPad software). Following this general procedure, samples were tested with or without a subject compound disclosed herein including compounds exemplified in Table 1 to assess their abilities to inhibit a mutant K-Ras relative to another mutant K-Ras or wildtype K-Ras. Signaling output measured in terms of IC50 values can be obtained, a ratio of IC50 against one mutant relative to another mutant can be calculated. For instance, a selective reduction of K-Ras G12D signaling output can be evidenced by a ratio greater than one. In particular, a selective reduction of K-Ras G12D signaling relative to K-Ras WT signaling is evidenced as the ratio of IC50 (against K-Ras WT) to IC50 (against K-Ras G12D) is greater than 1.
# KRASwt = target: T2, KRASwt (Homo sapiens, UniProt P01116); experiment: Bio-Biochem-PPI-HTRF Ras-SOS1 interaction assay (KRAS wt); assay type: biochemical; settings: 5 nM
# T2 construct: made in house; host or cells: E. coli BL21 (DE3)
# T2 sequence (P01116 1-188 isoform P01116-2): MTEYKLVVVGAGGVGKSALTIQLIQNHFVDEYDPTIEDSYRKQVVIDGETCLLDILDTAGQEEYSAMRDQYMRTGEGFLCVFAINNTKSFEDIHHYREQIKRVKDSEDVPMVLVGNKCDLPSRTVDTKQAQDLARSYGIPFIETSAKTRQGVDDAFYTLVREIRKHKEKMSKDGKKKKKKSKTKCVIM
# Description: as §1
# T1 sequence (P01116 1-188 isoform P01116-2 G12D): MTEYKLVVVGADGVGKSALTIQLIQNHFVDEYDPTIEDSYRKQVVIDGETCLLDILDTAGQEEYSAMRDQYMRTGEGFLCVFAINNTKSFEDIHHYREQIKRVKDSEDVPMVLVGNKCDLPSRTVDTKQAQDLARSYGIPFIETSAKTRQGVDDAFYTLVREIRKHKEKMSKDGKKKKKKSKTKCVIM
IC50 (KRASG12D) [µM],IC50 (KRASwt) [µM],Compound
< 5,< 5,"N#Cc1c(N)sc2c(F)ccc(-c3c(Cl)cc4c(N5CCC6(CN(C(=O)C7CC7(F)F)C6)C5)nc(OC[C@@]56CCCN5C[C@H](F)C6)nc4c3F)c12 (stereo partly drawn) [compound 143, 2-amino-4-(6-chloro-4-(2-(2,2-difluorocyclopropane-1-carbonyl)-2,6-diazaspiro[3.4]octan-6-yl)-8-fluoro-2-(((2R,7aS)-2-fluorotetrahydro-1H-pyrrolizin-7a(5H)-yl)methoxy)quinazolin-7-yl)-7-fluorobenzo[b]thiophene-3-carbonitrile]"
< 5,< 5,"N#CCC1CCN(c2nc(OC[C@@]34CCCN3C[C@H](F)C4)nc3c(F)c(-c4ccc(F)c5sc(N)c(C#N)c45)c(Cl)cc23)CC2(C1)CN(C(=O)C1CC1(F)F)C2 (stereo partly drawn) [compound 324, 2-amino-4-(6-chloro-4-(9-(cyanomethyl)-2-(2,2-difluorocyclopropane-1-carbonyl)-2,6-diazaspiro[3.6]decan-6-yl)-8-fluoro-2-(((2R,7aS)-2-fluorotetrahydro-1H-pyrrolizin-7a(5H)-yl)methoxy)quinazolin-7-yl)-7-fluorobenzo[b]thiophene-3-carbonitrile]"
< 5,< 5,"N#Cc1c(N)sc2c(F)ccc(-c3c(Cl)cc4c(N5CCC(O)CC6(CN(C(=O)C(F)F)C6)C5)nc(OC[C@@]56CCCN5C[C@H](F)C6)nc4c3F)c12 (stereo partly drawn) [compound 241, 2-amino-4-(6-chloro-4-(2-(2,2-difluoroacetyl)-9-hydroxy-2,6-diazaspiro [3.6]decan-6-yl)-8-fluoro-2-(((2R,7aS)-2-fluorotetrahydro-1H-pyrrolizin-7a(5H)-yl)methoxy)quinazolin-7-yl)-7-fluorobenzo[b]thiophene-3-carbonitrile]"
< 5,< 5,"N#Cc1c(N)sc2c(F)ccc(-c3c(Cl)cc4c(N5CCCCC6(CN(C(=O)C7CCC7(F)F)C6)C5)nc(OC[C@@]56CCCN5C[C@H](F)C6)nc4c3F)c12 (stereo partly drawn) [compound 210, 2-amino-4-(6-chloro-4-(2-(2,2-difluorocyclobutane-1-carbonyl)-2,6-diazaspiro[3.6]decan-6-yl)-8-fluoro-2-(((2R,7aS)-2-fluorotetrahydro-1H-pyrrolizin-7a(5H)-yl)methoxy)quinazolin-7-yl)-7-fluorobenzo[b]thiophene-3-carbonitrile]"
< 5,< 5,"N#Cc1c(N)sc2c(F)ccc(-c3c(Cl)cc4c(N5CCCCC6(CN(C(=O)[C@H]7CC7(F)F)C6)C5)nc(OC[C@@]56CCCN5C[C@H](F)C6)nc4c3F)c12 (single isomer, unassigned) [compound 118]"
< 5,< 5,"N#Cc1c(N)sc2c(F)ccc(-c3c(Cl)cc4c(N5CCC6(CC5)CN(C(=O)C5CC5(F)F)C6)nc(OC[C@@]56CCCN5C[C@H](F)C6)nc4c3F)c12 (stereo partly drawn) [compound 131, 2-amino-4-(6-chloro-4-(2-(2,2-difluorocyclopropane-1-carbonyl)-2,7-diazaspiro[3.5]nonan-7-yl)-8-fluoro-2-(((2R,7aS)-2-fluorotetrahydro-1H-pyrrolizin-7a(5H)-yl)methoxy)quinazolin-7-yl)-7-fluorobenzo[b]thiophene-3-carbonitrile]"

# Second part, the molecule before the results:
Compound,IC50 (KRASG12D) [µM],IC50 (KRASwt) [µM]
"CC(O)(C(=O)N1CC2(CCCCN(c3nc(OC[C@@]45CCCN4C[C@H](F)C5)nc4c(F)c(-c5ccc(F)c6sc(N)c(C#N)c56)c(Cl)cc34)C2)C1)C1CC1 (stereo partly drawn) [compound 329, 2-amino-4-(6-chloro-4-(2-(2-cyclopropyl-2-hydroxypropanoyl)-2,6-diazaspiro[3.6]decan-6-yl)-8-fluoro-2-(((2R,7aS)-2-fluorotetrahydro-1H-pyrrolizin-7a(5H)-yl)methoxy)quinazolin-7-yl)-7-fluorobenzo[b]thiophene-3-carbonitrile]",< 5,< 5
"N#Cc1c(N)sc2c(F)ccc(-c3c(F)c4nc(OC[C@@]56CCCN5C[C@H](F)C6)nc(N5CCCCC6(CN(C(=O)C7CC7(F)F)C6)C5)c4c(=O)n3C3CC3)c12 (stereo partly drawn) [compound 246, 2-amino-4-(6-cyclopropyl-4-(2-(2,2-difluorocyclopropane-1-carbonyl)-2,6-diazaspiro[3.6]decan-6-yl)-8-fluoro-2-(((2R,7aS)-2-fluorotetrahydro-1H-pyrrolizin-7a(5H)-yl)methoxy)-5-oxo-5,6-dihydropyrido[4,3-d]pyrimidin-7-yl)-7-fluorobenzo[b]thiophene-3-carbonitrile]",< 5,< 5
"N#Cc1c(N)sc2c(F)ccc(-c3c(Cl)cc4c(N5CCCCC6(CN(C(=O)NC7(C(F)(F)F)CC7)C6)C5)nc(OC[C@@]56CCCN5C[C@H](F)C6)nc4c3F)c12 [compound 289, 6-(7-(2-amino-3-cyano-7-fluorobenzo[b]thiophen-4-yl)-6-chloro-8-fluoro-2-(((2R,7aS)-2-fluorotetrahydro-1H-pyrrolizin-7a(5H)-yl)methoxy)quinazolin-4-yl)-N-(1-(trifluoromethyl)cyclopropyl)-2,6-diazaspiro[3.6]decane-2-carboxamide]",< 5,< 5
"Nc1nc2c(-c3c(Cl)cc4c(N5CCCC6(CNCCO6)C5)nc(OC[C@@]56CCCN5C[C@H](F)C6)nc4c3F)ccc(F)c2s1 (stereo partly drawn) [compound 159, 4-(6-chloro-8-fluoro-2-(((2R,7aS)-2-fluorotetrahydro-1H-pyrrolizin-7a(5H)-yl)methoxy)-4-(1-oxa-4,8-diazaspiro[5.5]undecan-8-yl)quinazolin-7-yl)-7-fluorobenzo[d]thiazol-2-amine]",< 5,< 5
"C#Cc1c(F)ccc2cc(O)cc(-c3ccc4c(N5CCCC6(CNC6)C5)nc(OC[C@@]56CCCN5C[C@H](F)C6)nc4c3F)c12 [compound 161, 5-ethynyl-6-fluoro-4-(8-fluoro-2-(((2R,7aS)-2-fluorotetrahydro-1H-pyrrolizin-7a(5H)-yl)methoxy)-4-(2,6-diazaspiro[3.5]nonan-6-yl)quinazolin-7-yl)naphthalen-2-ol]",< 5,< 5
"Cc1ccnc(C(C)C)c1-n1c(=O)nc(N2CCOC3(CNC3)C2)c2cc(F)c(-c3ccc(F)c4sc(N)c(C#N)c34)nc21 [compound 108, 2-amino-7-fluoro-4-(6-fluoro-1-(2-isopropyl-4-methylpyridin-3-yl)-2-oxo-4-(5-oxa-2,8-diazaspiro[3.5]nonan-8-yl)-1,2-dihydropyrido[2,3-d]pyrimidin-7-yl)benzo[b]thiophene-3-carbonitrile]",≥ 5,≥ 5
"Nc1nc2c(-c3c(Cl)cc4c(N5CCOC6(CNC6)C5)nc(OC[C@@]56CCCN5C[C@H](F)C6)nc4c3F)ccc(F)c2s1 [compound 107, 4-(6-chloro-8-fluoro-2-(((2R,7aS)-2-fluorotetrahydro-1H-pyrrolizin-7a(5H)-yl)methoxy)-4-(5-oxa-2,8-diazaspiro[3.5]nonan-8-yl)quinazolin-7-yl)-7-fluorobenzo[d]thiazol-2-amine]",< 5,< 5
"N#Cc1c(N)sc2c(F)ccc(-c3c(Cl)cc4c(N5CCCCC6(CN(C(=O)C7CCC7F)C6)C5)nc(OC[C@@]56CCCN5C[C@H](F)C6)nc4c3F)c12 (stereo partly drawn) [compound 160, 2-amino-4-(6-chloro-8-fluoro-4-(2-(2-fluorocyclobutane-1-carbonyl)-2,6-diazaspiro[3.6]decan-6-yl)-2-(((2R,7aS)-2-fluorotetrahydro-1H-pyrrolizin-7a(5H)-yl)methoxy)quinazolin-7-yl)-7-fluorobenzo[b]thiophene-3-carbonitrile]",< 5,< 5
"C#CN1CCC2(CCN(c3nc(OC[C@@]45CCCN4C[C@H](F)C5)nc4c(F)c(-c5ccc(F)c6sc(N)c(C#N)c56)c(Cl)cc34)C2)C1=O (stereo partly drawn) [compound 225, 2-amino-4-(6-chloro-4-(7-ethynyl-6-oxo-2,7-diazaspiro[4.4]nonan-2-yl)-8-fluoro-2-(((2R,7aS)-2-fluorotetrahydro-1H-pyrrolizin-7a(5H)-yl)methoxy)quinazolin-7-yl)-7-fluorobenzo[b]thiophene-3-carbonitrile]",< 5,< 5
"C#Cc1c(F)ccc2cc(O)cc(-c3ccc4c(N5CCCCC6(CN(C(=O)[C@@H]7CC7(F)F)C6)C5)nc(OC[C@@]56CCCN5C[C@H](F)C6)nc4c3F)c12 [compound 260, ((S)-2,2-difluorocyclopropyl) (6-(7-(8-ethynyl-7-fluoro-3-hydroxynaphthalen-1-yl)-8-fluoro-2-(((2R,7aS)-2-fluorotetrahydro-1H-pyrrolizin-7a(5H)-yl)methoxy)quinazolin-4-yl)-2,6-diazaspiro[3.6]decan-2-yl)methanone]",< 5,< 5
